The test system of the assay is MelanoDerm™ in vitro skin model (MEL-300B melanoderms). In words: In vitro skin model test (MelanoDerm skin-lightening, digital image quantification). The class given is cell-based. The settings on record: for pixel density / lightening: 14 days; for pixel density: pixel content of untreated set at 1.00; for lightening: vs untreated. The procedure:
The skin-lightening effect was validated on the in vitro skin model, the MelanoDerm™ carried out by MatTek using MEL-300B melanoderms. This model is very similar in structure and function to the natural skin and has the cell types relevant in the epidermis including the melanocytes, which are responsible for the synthesis of the main pigment melanin. Further information can be found, for example, in http://www.mattek.com/pages/in_vitro_basics. The study was carried out over a period of 14 days at two concentrations, 10 μM and 60 μM. 1% Kojic acid was the positive standard and untreated as negative control.
Digital image quantification was achieved by subtracting a standard background value from the pixel content of regions of identical size. The pixel content of untreated cells was set at 1.00. Treatment with topical 1% kojic acid as a positive control gave pixel density of 0.96 or 4% lightening. Treatment with Duroquinone gave pixel density of 0.82 or 18% lightening at a concentration of 10 μM and 0.60 or 40% lightening at a concentration of 60 μM. Treatment with 2,5,6-trimethyl-3-(4-(trifluoromethyl)phenyl)cyclohexa-2,5-diene-1,4-dione gave pixel density of […] or 34% lightening at a concentration of 60 μM.

We go through 3 compounds from US20100010100A1, “DERMATOLOGICAL COMPOSITIONS WITH ANTI-AGING AND SKIN EVEN-TONING PROPERTIES” (priority 2008, published 2010).

`CC1=C(C)C(=O)C(c2ccc(C(F)(F)F)cc2)=C(C)C1=O` [2,5,6-trimethyl-3-(4-(trifluoromethyl)phenyl)cyclohexa-2,5-diene-1,4-dione]: the “effectiveness relative to kojic acid positive standard” value (60 μM vs 1% kojic acid) is “ten times as effective”. Where the note is “60 μM”, this compound showed a pixel density of 0.69 and a lightening of 34%.
As for `CC1=C(C)C(=O)C(C)=C(C)C1=O` [Duroquinone, 2,3,5,6-tetramethylcyclohexa-2,5-diene-1,4-dione], the “effectiveness relative to kojic acid positive standard” value (10 μM vs 1% kojic acid) was “four and a half times as effective”; the “effectiveness relative to kojic acid positive standard” value (60 μM vs 1% kojic acid) is recorded as “ten times as effective”. Further, the pixel density turned out to be 0.82 (10 μM) and 0.60 (60 μM). Also, the lightening is, setting by setting: (10 μM) 18%; (60 μM) 40%.
As for `O=c1cc(CO)occ1O` [kojic acid, reference compound], for the setting “topical 1% (positive control)”, the pixel density was determined as 0.96 and the lightening stood at 4%.
